Data: patent US12139481B2, “Compositions comprising macrocycle derivatives incorporating bridged macrocycles and methods of producing and using same” (Southwestern Oklahoma State University, priority 2015, dated 2024)
pIC50: −log10 of the molar value. Where “and” joins values, the source holds several entries; their conditions need not be identical. Identical values can stand only once.

How the values were obtained:
[1] = system: Cryptococcus neoformans ATCC 90113; assay: Antimicrobial microdilution assay against Cryptococcus neoformans (modified CLSI/NCCLS, optical density); assay type: cell-based; conditions: for X more potent than Amphotericin B: C. neoformans, ratio of molar IC50 to Amphotericin B; for C. neoformans IC50 / pIC50: in vitro, C. neoformans ATCC 90113; for pIC50: read-out: C. neoformans IC50 (mol/L)
Outline: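 Fungicidal endpoint taken by subculturing 5 μL from each clear well onto agar, MFC being the lowest concentration with no regrowth. Duplicate wells of serially diluted compound (20% DMSO/saline) in RPMI pH 6.0, read at 630 nm pre- and post-incubation, under modified CLSI methods. IC50 means 50% growth inhibition against controls.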

[2] = system: S. mansoni newly transformed schistosomula (NTS); assay: In vitro testing on Schistosoma mansoni newly transformed schistosomula (NTS), viability score; assay type: cell-based; conditions: NTS S. mansoni, 33 μM, 72 h
Method: Assays were prepared according to the laboratory SOP for the lab of Dr. Jennifer Keiser (Swiss Tropical and Public Health Institute, Basel). Harvested S. mansoni cercariae (Liberian strain) obtained from infected Biomphalaria glabrata snails were mechanically transformed into newly transformed schistosomula (NTS) following standard procedures. Briefly, snails were placed under light in the morning to stimulate cercarial shedding. The cercarial suspension was collected, cooled for 30 minutes, and then vigorously pipetted (30×) and vortexed (3 minutes). The suspension was then placed in the incubator (37° C. and 5% CO2) for 30 minutes, and the vortexing and pipetting steps were repeated. The transformation was complete at this point, and the tails were separated from the heads by rinsing three times with cold HBSS. NTS were then incubated overnight in culture medium overnight and used the next day.
The original stock compounds (which were not already dissolved) were dissolved in dimethyl sulfoxide (DMSO) to a concentration of 10 mM. 100 NTS were placed in each well of a 96-well plate with culture medium, and the test compound for a final well volume of 250 μl. […] NTS incubated with no more than 1% DMSO served as control. NTS were kept in an incubator at 37° C. and 5% CO2 for up to 72 hours. After 72 hours, the condition of the NTS was microscopically evaluated using a scale from 3 (normal activity and no tegument alteration) to 0 (dead, completely granulated).

[3] = system: methicillin-resistant S. aureus ATCC 33591 (MRS); assay: Antibacterial broth dilution assay against MRSA (modified CLSI); assay type: cell-based, Staphylococcus aureus; conditions: for MRSa IC50 / pIC50: in vitro; for pIC50: converted with molecular weight; for X more potent than ciprofloxacen: molar IC50 ratio versus ciprofloxacen
Method: (§1) General Experimental Procedures. All organisms were obtained from the American Type Culture Collection (Manassas, VA) and include the fungi Candida albicans ATCC 90028, C. glabrata ATCC 90030, C. krusei ATCC 6258, and Cryptococcus neoformans ATCC 90113, and the bacteria Staphylococcus aureus ATCC 29213 and methicillin-resistant S. aureus ATCC 33591 (MRS). All organisms were tested using modified versions of the CLSI (formerly NCCLS) methods. For all organisms, optical density was used to monitor growth (NCCLS, Reference Method for Broth Dilution Antifungal Susceptibility Testing of Yeasts; Approved Standard M27-A2. National Committee on Clinical Laboratory Standards, 2002 22 (15); and NCCLS, Methods for Dilution Antimicrobial Susceptibility Tests for Bacteria that Grow Aerobically; Approved Standard, Seventh Edition M7-A7. National Committee on Clinical Laboratory Standards, 2006. 26(2)).
(§2) Samples (dissolved in DMSO) were serially-diluted in 20% DMSO/saline and transferred (10 μL) in duplicate to 96 well flat bottom microplates. Inocula were prepared by correcting the OD630 of microbe suspensions in incubation broth [RPMI 1640/0.2% dextrose/0.03% glutamine/MOPS @ pH 6.0 (Cellgro) for Candida spp., Sabouraud Dextrose for C. neoformans, and cation-adjusted Mueller-Hinton (Difco) @ pH 7.3 for Staphylococcus spp. to afford an assay volume of […] and final target inocula of: Candida spp. and C. neoformans: 1.5×10^3, and Staphylococcus spp.: 5.0×10^5 CFU/ml. Final sample test concentrations were 1/100th the DMSO stock concentration. […] All organisms were read at either 530 nm using the Biotek Powerwave XS plate reader (Bio-Tek Instruments, Vermont) prior to and after incubation: Candida spp. at 35° C. for 46-50 h, Staphylococcus spp. at 35° C. for 16-20 h, and C. neoformans at 35° C. for 70-74 h. IC50s (concentrations that afford 50% inhibition relative to controls) were calculated using XLfit 4.2 software (IDBS, Alameda, CA) using fit model 201. The MIC is defined as the lowest test concentration that allows no detectable growth. Minimum fungicidal or bactericidal concentrations were determined by removing 5 μl from each clear (or blue) well, transferring to fresh media, and incubating as previously mentioned. The MFC/MBC is defined as the lowest test concentration that kills the organism (allows no growth).
(§3) Primary Analysis. Samples were tested in duplicate at one test concentration (50 μg/mL), and percent inhibitions were calculated relative to blank and growth controls. Samples showing 50% inhibition in at least one test organism were selected for dose response (Secondary) studies.
(§4) Secondary Analysis. Extracts from the Primary Assay, and first-run pure compounds and column fractions were tested in duplicate at 3 test concentrations (5-fold dilutions). Samples dissolved to 20 mg/mL in DMSO were tested at 200, 40, and 8 μg/mL. Samples dissolved to 2 mg/mL in DMSO were tested at 20, 4, and 0.8 μg/mL.

[4] = system: L. donovani promastigotes; assay: Antileishmanial Alamar Blue assay on promastigotes; assay type: cell-based, Leishmania donovani; conditions: for X more potent than Pentamidine: L. donovani, ratio of molar IC50 to Pentamidine; for L. donovani IC50 / pIC50: promastigotes, 48 hours, Alamar Blue; for pIC50: read-out: L. donavani IC50
Outline: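 Alamar Blue fluorescence (544/590 nm) quantified growth after 48 hours at 26° C of compound-treated promastigotes. Parasites were seeded at 5×10^5/mL in RPMI 1640 plus 10% FCS; drug range 50-3.1 μg/mL, and IC50 derived by plotting percent growth against test concentration.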

C. glabrata ATCC 90030 = assay: Antifungal broth dilution assay against C. glabrata (modified CLSI); assay type: cell-based, Candida glabrata; conditions: for C. glabrata IC50 / pIC50: in vitro; for pIC50: converted with molecular weight; for X more potent than Amphotericin B: molar IC50 ratio versus amphotericin B
Outline: (§5)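 Growth read by optical density at 530 nm, duplicate wells, 1% final DMSO. Staphylococcus spp.: Mueller-Hinton pH 7.3, 5.0×10^5 CFU/ml, 35 °C for 16-20 h; Candida spp.: RPMI/dextrose/glutamine/MOPS pH 6.0, 1.5×10^3 CFU/ml, 35 °C for 46-50 h. Reported values are 50% inhibition versus controls, no-growth MIC, and killing MFC/MBC.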

[5] = system: Staphylococcus aureus ATCC 29213; assay: Antibacterial broth dilution assay against S. aureus (modified CLSI); assay type: cell-based; conditions: for S. aureus IC50 / pIC50: in vitro; for pIC50: converted with molecular weight; for X more potent than ciprofloxacen: molar IC50 ratio versus ciprofloxacen
Outline: as §5

C. krusei ATCC 6258 = assay: Antifungal broth dilution assay against C. krusei (modified CLSI); assay type: cell-based, Candida krusei
Method: as §1, §2, §3, §4

Compound	X more potent than Amphotericin B [1]	C. neoformans IC50 [1]	pIC50 [1]	Effect at 72 h (%) [2]	MRSa IC50 [3]	pIC50 [3]	X more potent than ciprofloxacen [3]	X more potent than Pentamidine [4]	L. donovani IC50 [4]	pIC50 [4]	S. aureus IC50 [5]	pIC50 [5]	X more potent than ciprofloxacen [5]	also measured
CC(=O)[O-].CC(=O)[O-].CC(=O)[O-].CN1CCN2CCN(CC1)CCN(Cc1cc(CN3CCN4CCN(C)CCN(CC4)CC3)cc(CN3CCN4CCN(C)CCN(CC4)CC3)c1)CC2.F[P-](F)(F)(F)(F)F.F[P-](F)(F)(F)(F)F.F[P-](F)(F)(F)(F)F.[Cu+2].[Cu+2].[Cu+2] [BNS21, [Cu3(tris-CB-Cyclens)(OAc)3][PF6]3]	0.28	1.320 µg/mL	6.07	5.41%										
CC(=O)[O-].CC(=O)[O-].CC(=O)[O-].CN1CCN2CCN(CC1)CCN(Cc1cc(CN3CCN4CCN(C)CCN(CC4)CC3)cc(CN3CCN4CCN(C)CCN(CC4)CC3)c1)CC2.F[P-](F)(F)(F)(F)F.F[P-](F)(F)(F)(F)F.F[P-](F)(F)(F)(F)F.O.O.O.O.O.O.[Zn+2].[Zn+2].[Zn+2] [BNS22, [Zn3(tris-CB-Cyclens)(OAc)3][PF6]3•6H2O]	0.12	3.410 µg/mL		11.71%										
CC(=O)[O-].CC(=O)[O-].CC(=O)[O-].CN1CCCN2CCN(CCCN(Cc3cc(CN4CCCN5CCN(C)CCCN(CC5)CC4)cc(CN4CCCN5CCN(C)CCCN(CC5)CC4)c3)CC2)CC1.F[P-](F)(F)(F)(F)F.F[P-](F)(F)(F)(F)F.F[P-](F)(F)(F)(F)F.[Cu+2].[Cu+2].[Cu+2] [BNS025]				18.02%										
CC(=O)[O-].CC(=O)[O-].CN1CCCN2CCN(CCCN(Cc3cccc(CN4CCCN5CCN(C)CCCN(CC5)CC4)c3)CC2)CC1.F[P-](F)(F)(F)(F)F.F[P-](F)(F)(F)(F)F.F[P-](F)(F)(F)(F)F.F[P-](F)(F)(F)(F)F.[Co+3].[Co+3] [CDG010, [Co2(m-CB-Cyclams)(OAc)2][PF6]4]	0.35	0.960 µg/mL	6.16	11.71%										
c1c(CN2CCCN3CCN(CCCNCC2)CC3)cc(CN2CCCN3CCN(CCCNCC2)CC3)cc1CN1CCCN2CCN(CCCNCC1)CC2 [CDG019]				0.00%										
F[P-](F)(F)(F)(F)F.F[P-](F)(F)(F)(F)F.F[P-](F)(F)(F)(F)F.F[P-](F)(F)(F)(F)F.F[P-](F)(F)(F)(F)F.F[P-](F)(F)(F)(F)F.[Ni+2].[Ni+2].[Ni+2].c1c(CN2CCCN3CCN(CCCNCC2)CC3)cc(CN2CCCN3CCN(CCCNCC2)CC3)cc1CN1CCCN2CCN(CCCNCC1)CC2 [CDG024, [Ni3(tris-SB-Cyclams)][PF6]6]	0.18	2.440 µg/mL	5.88	5.41%										
c1c(CN2CCNCCN3CCN(CC3)CC2)cc(CN2CCNCCN3CCN(CC3)CC2)cc1CN1CCNCCN2CCN(CC2)CC1 [CDG029]				24.32%										
CN1CCN2CCN(C)CCN(CC1)CC2.F[P-](F)(F)(F)(F)F.[Cl-].[Cl-].[Mn+3] [CNV06, [Mn(Bcyclen)Cl2]PF6]	0.02	6.390 µg/mL and 5.579 µg/mL	4.89 and 4.95	0.00%										
CC(=O)[O-].CN1CCCN2CCN(CCCN(Cc3ccccc3)CC2)CC1.F[P-](F)(F)(F)(F)F.[Co+2] [TRH016]				11.71%										
[Co2(p-CB-cyclam-cyclen)(OAc)2][PF6]2 [CMB027]	0.32	≤ 0.800 µg/mL	6.13		5.390 µg/mL	5.30	0.04	0.18	32.62 µg/mL	4.52	7.36 µg/mL	5.17	0.04	C. glabrata IC50 (C. glabrata ATCC 90030): 1.320 µg/mL; pIC50 (C. glabrata ATCC 90030): 5.91; X more potent than Amphotericin B (C. glabrata ATCC 90030): 1.16
[Ni2(m-CB-Homocyclens)(OAc)1.9][PF6]2.1 [CDG038]	0.09	3.010 µg/mL	5.56		9.080 µg/mL	5.08	0.03	0.29	19.92 µg/mL	4.74	9.58 µg/mL	5.06	0.03	
[Ni2(m-cyclam-homocyclen)(OAc)2][PF6]2•H2O [AW050]	0.25	1.040 µg/mL	6.03		4.650 µg/mL	5.38	0.05	0.36	16.50 µg/mL	4.83	8.540 µg/mL	5.11	0.04	
[Zn2(p-CB-cyclam-cyclen)(OAc)][PF6]3•4H2O [CMB030]	0.22	1.380 µg/mL	5.96		8.760 µg/mL	5.15	0.03	0.21	31.32 µg/mL	4.60	7.86 µg/mL	5.20	0.04	C. glabrata IC50 (C. glabrata ATCC 90030): 4.190 µg/mL; pIC50 (C. glabrata ATCC 90030): 5.48; X more potent than Amphotericin B (C. glabrata ATCC 90030): 0.42
m-SB-cyclens HCl salt [OB25B]	0.74	0.300 µg/mL	6.49		5.450 µg/mL	5.23	0.04	0.43	11.45 µg/mL	4.91	5.940 µg/mL	5.19	0.04	X more potent than Amphotericin B (C. krusei ATCC 6258; C. krusei, ratio of molar IC50 to amphotericin B): 0.21; C. krusei IC50 (C. krusei ATCC 6258; in vitro): 6.530 µg/mL; pIC50 (C. krusei ATCC 6258; in vitro, read-out: C. krusei IC50 (mol/L)): 5.15
